The structures appear in SMILES notation. Entries after “also recorded” stand apart in the source; their conditions may differ.

For one data set, the target named is T1, porcine brain tubulin (Sus scrofa, UniProt P02550+P02554).
T1 construct: purchased Cytoskeleton, Denver, CO; host or cells: porcine brain (tissue-purified)
Briefly: Tubulin polymerisation assay. Type of data set: biochemical. The settings on record: for inhibitory activity against tubulin polymerisation (in words): 10 μmol/L, Vmax relative to DMSO; for IC50: dose-response, mean ± SD of two independent experiments, read-out: IC50 inhibition of tubulin assembly; for inhibition at 10 µM: read-out: Tubulin polymerisation inhibition. A digest of the protocol:
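Polymerisation of >99% pure porcine brain tubulin followed at 37 °C with a commercial kit, with test compounds at 10 μmol/L or DMSO. Maximum polymerisation velocity (Vmax) derived from the polymerisation curves.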

Data set [1] in a line: MTS cytotoxicity assay, MRC-5. Type of data set: cell-based. The settings on record: human, MRC-5 cells (non-tumour fibroblasts); MTS assay, 72-h incubation, mean ± SD of 3 independent experiments; read-out: IC50 cytotoxic activity MRC-5. A digest of the protocol:
(§1)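 Cells seeded overnight, then exposed to fourfold serial dilutions of compounds (DMSO) for 72 h at 37 °C, 5% CO2; viability read by MTS reagent. Technical duplicates, three biological replicates. HCT116p53−/− is the p53-null variant.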
(In general: Tetrazolium assays rely on reduction of a dye to a coloured formazan, in cell work by metabolically active cells.)

Data set [2] deals with HCT116 (colorectal adenocarcinoma). Briefly: MTS cytotoxicity assay, HCT116. Type of data set: cell-based. The settings on record: Homo sapiens, HCT-116; MTS assay, 72-h incubation, mean ± SD of 3 independent experiments; read-out: IC50 cytotoxic activity HCT116. A digest of the protocol: as §1
The test system of data set [3] is K562-TAX (paclitaxel-resistant variant of K562). Briefly: MTS cytotoxicity assay, K562-TAX. Type of data set: cell-based, human. The settings on record: Homo sapiens, K562-Tax; MTS assay, 72-h incubation, mean ± SD of 3 independent experiments; read-out: IC50 cytotoxic activity K562-TAX. The method in brief: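 MTS read-out after 72 h compound exposure at 37 °C. Cells plated the day before, treated with fourfold serial dilutions from DMSO stocks; duplicate wells, three independent experiments.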

The next data set relates to U2OS cells. Briefly: Immunofluorescence of microtubules / mitotic spindle. The data set is classed as cell-based, human. Conditions: 10 µM, 24-h incubation. From the text:
In addition, the presence of aster-like tubulin structures indicated the failure in microtubule elongation (Figure 4, ED5). […] The observed intracellular effects of ED3 and ED5 are consistent with data from in vitro assembly assays and cell cycle analyses, thereby strongly supporting the proposed antimitotic mechanisms of these EDs. […] Importantly, cytotoxic IC50 values may vary depending on the duration of exposure to the drug. A more extended exposure could lead to a decrease in the IC50 value, and vice versa. This temporal factor could also contribute to the observed differential sensitivity among the cell lines. The detailed mechanism and the extent to which these cellular and molecular dynamics (MD) contribute to the observed phenomenon might necessitate further investigation and experimentation.
U2OS cells, cultivated on coverslips, underwent a PBS wash and were then fixed in a solution of 3% paraformaldehyde in a buffer containing 10 mM MES, 150 mM NaCl, 5 mM EGTA, 5 mM MgCl2, 5 mM glucose, adjusted to a pH of 6.1. The nuclei were made visible using Hoechst 33342. Subsequently, a 60-min blocking step with 5% goat serum in PBS (SpinChem, Seattle, WA) was followed by a 60-min incubation with α-tubulin (DM1A) mouse monoclonal antibody (Cell Signaling, Danvers, MA) in PBS supplemented with 1% BSA and 0.3% Triton X-100. Visualisation was achieved using Alexa Fluor-488 conjugated anti-mouse antibodies (Life Technologies, Carlsbad, CA). Between each step, the samples underwent a series of three 5-min washes with PBS. Finally, the samples were mounted using Vectashield Mounting Medium with DAPI and imaged utilising a Zeiss spinning disk confocal microscope equipped with CSU-X1 unit (Yokogawa, Musashino, Japan)[10].

Another data set has as its system CCRF-CEM lymphoblasts. Briefly: Phospho-histone H3 (Ser10) mitotic marker, flow cytometry. The data set is classed as cell-based, human. A digest of the protocol: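 CCRF-CEM cells treated 24 h, then fixed in cold 70% ethanol, permeabilised with 0.25% Triton X-100 and stained with anti-phospho-histone H3 (Ser10). After 50 μg/mL RNase and propidium iodide, analysed by flow cytometry at 488 nm; sub-G1 events counted as non-viable with fragmented DNA.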
In general terms: A flow cytometer gives signals particle by particle.

Data set [4] deals with K562 (chronic myelogenous leukaemia). Briefly: MTS cytotoxicity assay, K562. Type of data set: cell-based. Conditions: Homo sapiens, K562; MTS assay, 72-h incubation, mean ± SD of 3 independent experiments; read-out: IC50 cytotoxic activity K562. The method in brief:
as §1

T1 sequence (P02550 whole entry): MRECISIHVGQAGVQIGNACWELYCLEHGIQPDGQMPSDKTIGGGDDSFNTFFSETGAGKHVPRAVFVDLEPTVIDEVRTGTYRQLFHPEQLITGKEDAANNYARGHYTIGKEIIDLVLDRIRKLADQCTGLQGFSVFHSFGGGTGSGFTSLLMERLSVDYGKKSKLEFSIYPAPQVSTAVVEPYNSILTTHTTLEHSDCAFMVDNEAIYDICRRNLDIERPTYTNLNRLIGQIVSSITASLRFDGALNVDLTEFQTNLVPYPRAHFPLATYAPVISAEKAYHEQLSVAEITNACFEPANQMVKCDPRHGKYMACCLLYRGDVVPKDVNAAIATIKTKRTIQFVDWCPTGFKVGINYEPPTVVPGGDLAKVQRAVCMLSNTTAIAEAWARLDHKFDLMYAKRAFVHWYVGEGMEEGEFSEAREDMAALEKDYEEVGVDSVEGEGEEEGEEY
T1 sequence (P02554 whole entry): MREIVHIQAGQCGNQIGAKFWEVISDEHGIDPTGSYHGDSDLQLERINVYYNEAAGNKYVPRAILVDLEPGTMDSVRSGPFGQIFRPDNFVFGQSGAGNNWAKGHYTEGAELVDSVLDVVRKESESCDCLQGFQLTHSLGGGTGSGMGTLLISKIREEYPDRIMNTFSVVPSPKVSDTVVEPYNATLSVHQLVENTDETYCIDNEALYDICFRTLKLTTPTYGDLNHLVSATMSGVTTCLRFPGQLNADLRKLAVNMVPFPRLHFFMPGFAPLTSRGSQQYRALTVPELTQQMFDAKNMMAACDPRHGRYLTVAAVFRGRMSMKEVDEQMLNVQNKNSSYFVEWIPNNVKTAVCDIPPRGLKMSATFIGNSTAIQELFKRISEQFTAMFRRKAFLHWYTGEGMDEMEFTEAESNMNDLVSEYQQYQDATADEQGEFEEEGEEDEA

With `C[C@]12CC[C@@H]3c4ccc(O)cc4CC[C@H]3[C@@H]1CC[C@@]2(O)c1cn(Cc2cc(Cn3cc([C@]4(O)CC[C@H]5[C@@H]6CCc7cc(O)ccc7[C@H]6CC[C@@]54C)nn3)cc(OCCO)c2)nn1` [ED5, (17β,17′β)-17,17′-{[5-(2-Hydroxyethoxy)benzene-1,3-diyl]bis(methanediyl-1H-1,2,3-triazole-1,4-diyl)}bisestra-1,3,5(10)-triene-3,17-diol], the “inhibitory activity against tubulin polymerisation (in words)” value on porcine brain tubulin is recorded as “comparable or better inhibitory activity; also recorded: most potent inhibitor of in vitro tubulin polymerisation”. Besides, the IC50 on porcine brain tubulin was 2010 ± 210 nM; in data set [2], 2020 ± 190 nM; in data set [3], greater than 50000 nM; in data set [4], 420 ± 44 nM. The inhibition at 10 µM at porcine brain tubulin came to 70.2%. In data set [1], the half-inhibitory concentration (IC50) at 72 h is greater than 50000 nM. In addition, the “microtubule organisation in mitotic cells (in words)” value (shortened to “microtubule organisation”) in the data set with U2OS cells is on record as “disruption in microtubule organisation”. Further, the “pH3Ser10, % of positive cells” value in the data set on CCRF-CEM lymphoblasts (1×IC50, 24 h) is reported as 6.27%; with CCRF-CEM lymphoblasts (5×IC50, 24 h), 0.34%.
As to `C[C@]12CC[C@@H]3c4ccc(O)cc4CC[C@H]3[C@@H]1CC[C@@]2(O)c1cn(Cc2cccc(Cn3cc([C@]4(O)CC[C@H]5[C@@H]6CCc7cc(O)ccc7[C@H]6CC[C@@]54C)nn3)n2)nn1` [ED, reference compound], the 50% inhibitory concentration (IC50) on porcine brain tubulin is 2180 ± 1800 nM; in data set [2] it was 950 ± 110 nM; in data set [3] it was greater than 50000 nM; in data set [4], 580 ± 230 nM. Further, at porcine brain tubulin, the inhibition at 10 µM amounted to 55.6%. The IC50 at 72 h in data set [1] turned out to be 1160 ± 250 nM. Further, in the data set with U2OS cells, the “microtubule organisation” value is recorded as “disruption in microtubule organisation”. For the same compound, the “pH3Ser10, % of positive cells” value worked out at 8.08% in the data set on CCRF-CEM lymphoblasts (1×IC50, 24 h) and 48.71% in the data set with CCRF-CEM lymphoblasts (5×IC50, 24 h).
With `COc1cc(Cn2cc([C@]3(O)CC[C@H]4[C@@H]5CCc6cc(O)ccc6[C@H]5CC[C@@]43C)nn2)cc(Cn2cc([C@]3(O)CC[C@H]4[C@@H]5CCc6cc(O)ccc6[C@H]5CC[C@@]43C)nn2)c1` [ED3, (17β,17′β)-17,17′-[(5-Methoxybenzene-1,3-diyl)bis(methanediyl-1H-1,2,3-triazole-1,4-diyl)]bisestra-1,3,5(10)-triene-3,17-diol], at porcine brain tubulin, the “inhibitory activity against tubulin polymerisation (in words)” value was “comparable or better inhibitory activity”. In addition, the half-inhibitory concentration (IC50) on porcine brain tubulin was 2240 ± 1540 nM; in data set [2], 470 ± 22 nM; in data set [3] it was greater than 50000 nM; in data set [4], 330 ± 74 nM. Also, at porcine brain tubulin, the inhibition at 10 µM was 31.6%. Moreover, the IC50 at 72 h in data set [1] is greater than 50000 nM. The “microtubule organisation” value in the data set with U2OS cells was “disruption in microtubule organisation”. Besides, the “mitosis-specific phosphorylation of histone H3 (in words)” value with CCRF-CEM lymphoblasts (1× and 5×IC50, 24 h) is “did not induce an increase of mitosis-specific phosphorylation of histone H3”. Moreover, the “pH3Ser10, % of positive cells” value in the data set with CCRF-CEM lymphoblasts (1×IC50, 24 h) is reported as 1.43%; in the data set on CCRF-CEM lymphoblasts (5×IC50, 24 h), 0.77%.

The term IC50 denotes the concentration at which inhibition is half-maximal. By inhibition is commonly meant the relative decrease from the control value, in per cent.

(Values after paper PMC467089, “Click estradiol dimers with novel aromatic bridging units: synthesis and anticancer evaluation” (Journal of Enzyme Inhibition and Medicinal Chemistry, 2024).)
